Assay [1] concerns TNF-α release in LPS-induced Balb/c female mice. Briefly: Inhibition of TNF-α release in LPS-induced Balb/c female mice. The assay is classed as in vivo, mouse. Also on record: concentration or dose not given beside the values. The settings on record: oral gavage 5 h before LPS induction, serum 1.5 h after stimulation. How it is done: In the normal control groups, the animals received an intraperitoneal injection of normal saline (10 mL/kg) and in the model groups, the animals received LPS stimulation (Sigma CAT #L2630, i.p., 10 mL/kg, 0.2 mg/kg). During the assay, to the test compounds, DMSO, Solutol and 10 mM PBS were sequentially added to prepare a solution or suspension of required concentration for administration. For the vehicle, DMSO, Solutol and 10 mM PBS were mixed in a volume ratio of 5:15:80. In each of the groups, the animals were administered through oral gavage (10 mL/kg) 5 h before LPS (or saline) stimulation at predetermined doses, and euthanized with CO2 at 1.5 h after the stimulation for cardiac blood collection. The whole blood was not anticoagulated, incubated in wet ice for 1.5 h, and centrifuged at 2000×g at 4° C. for 10 min to separate the serum. The serum was frozen at −80° C. for TNF-α assay. Quantification of the TNF-α was done with TNF-α ELISA kit according to the manufacturer's instruction.

The test system of assay [2] is IL-6 release in LPS-induced Balb/c female mice. The assay is described as follows: Inhibition of IL-6 release in LPS-induced Balb/c female mice. The conditions noted are these: administered 5 h before LPS induction, serum. Also on record: concentration or dose not given beside the values. The format is in vivo, mouse. How it is done:
Objective of the test: To determine the inhibitory effect of the compounds by measuring the plasma IL-6 concentration in a Balb/c mouse model with LPS-induced inflammation.
2.1 Prepared mouse serum samples (sample batch no. 20181218)
4.1 Reagent kit was equilibrated at room temperature (25-28° C.) for 20 min. After each detection, the remaining reagents were stored at 4° C.
4.3 Preparing reference standard: 1 vial of reference standard substance was added with labeled volume of reference standard diluent. The mixtures were incubated for 15 min at room temperature. Then the mixtures were gently mixed to completely dissolve the substance to prepare a reference standard stock at a final concentration of 1000 μg/mL.
4.4 Dilution of samples: The sample in each group was diluted by […], i.e., a 2-fold dilution with sample assay buffer followed by another two-fold dilution with standard diluent.
4.5 The diluted samples or standards of different concentrations were added into corresponding wells at 100 μL/well respectively, and a background correcting well (or a blank well) was set by adding only TMB buffer and terminating solution. The wells were sealed with a transparent film and incubated at room temperature for 120 min.
4.6 The plate was subjected to 5 washes, each with 300 μL of washing buffer for 15-30 sec. The plate was dried on thick absorbent paper after the last wash.
4.7 Biotinylated antibody was added at 100 μL/well (Note: the biotinylated antibody was prepared in advance and could be used directly without further dilution). The wells were sealed with a transparent film and incubated at room temperature for 60 min.
4.8 The plate was subjected to 5 washes, each with 300 μL of washing buffer for 15-30 sec. The plate was dried on thick absorbent paper after the last wash.
4.9 Horseradish peroxidase-labeled streptavidin was added at 100 μL/well. The wells were sealed with a white film and incubated away from light at room temperature for 20 min.
4.10 The plate was subjected to 5 washes, each with 300 μL of washing buffer for 15-30 sec. The plate was dried on thick absorbent paper after the last wash.
4.11 The chromogenic reagent TMB was added 100 μL/well. The wells were sealed with a white film and incubated away from light at room temperature for 20 min.
4.12 The terminating solution was added at 50 μL/well and A450 value was measured right after mixing.

Assay [3] deals with T1, human IRAK4 (Homo sapiens, UniProt Q9NWZ3).
T1 construct: purchased Cama (so in the source)
T1 sequence (Q9NWZ3 1-460): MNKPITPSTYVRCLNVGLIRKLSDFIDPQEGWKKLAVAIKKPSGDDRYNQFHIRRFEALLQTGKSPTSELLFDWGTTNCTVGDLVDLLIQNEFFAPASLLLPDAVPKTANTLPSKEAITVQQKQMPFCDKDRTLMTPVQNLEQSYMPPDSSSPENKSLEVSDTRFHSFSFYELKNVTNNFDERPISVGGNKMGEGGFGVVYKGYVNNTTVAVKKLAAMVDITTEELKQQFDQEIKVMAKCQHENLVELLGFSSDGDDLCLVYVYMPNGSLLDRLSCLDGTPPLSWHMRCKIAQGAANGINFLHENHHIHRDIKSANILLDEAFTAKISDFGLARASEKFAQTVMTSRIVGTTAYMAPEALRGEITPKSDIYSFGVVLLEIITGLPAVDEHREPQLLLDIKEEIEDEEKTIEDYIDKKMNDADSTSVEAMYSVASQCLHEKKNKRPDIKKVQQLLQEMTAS
Briefly: IRAK4 MSA (Mobility-Shift Assay) at Km ATP. The format is biochemical. The settings on record: GST-IRAK4 1 nM, ATP 37 μM (Km); read-out: IC50 for inhibiting human IRAK4 kinase. How it is done:
A recombinant fusion protein of N-terminal GST (glutathione-S-transferase) and human IRAK4 was used as enzyme (GST-IRAK4, kinase IRAK4 (Cama)) at a final concentration of 1 nM; ATP (Sigma) was at a final concentration of 37 μM; the substrates used for the kinase reaction were a 5-FAM (5-carboxyfluorescein)-labeled polypeptide (5-FAM-[…]-COOH) and a substrate peptide FAM-P8 (GL Biochem) at final concentrations of […].
In this assay, 500 μM solutions of the compounds were prepared in 100% DMSO, and serially 4-fold diluted to the 10th concentration gradient with 100% DMSO, followed by a 10-fold dilution in the compound buffer (50 mM HEPES. pH 7.5, 0.00015% Brij-35) to give intermediate dilutions of the compounds at a final concentration of 10 μM-0.04 nM containing 10% DMSO respectively, 5 μL of the dilutions were transferred into a black 384-well plate respectively.
IRAK4 was diluted to 2.5 nM in the kinase buffer (50 mM HEPES, pH 7.5, 0.00015% Brij-35, 2 mM DTT). 10 μL of the IRAK4 dilution was transferred to the 384-well plate and co-incubated with the compound for 10-15 min.
The substrate and ATP were diluted to 12.5 μM and 92.5 μM with reaction buffer (50 mM HEPES, pH 7.5, 0.00015% Brij-35, 10 mM MgCl2), respectively. 10 μL of the dilutions were transferred to a 384-well plate and incubated at 28° C. for 1 h respectively. The reaction was terminated by adding 25 μL of 50 mM EDTA to the 384-well plate.
The inhibition rates of IRAK4 by the compounds were calculated by measuring the rate of phosphorylated substrate using a Caliper EZ Reader (PerkinElmer) and the IC50 values were calculated by XL-fit software.

Assay [4] addresses T2, human IRAK1 (Homo sapiens, UniProt P51617).
T2 construct: purchased Cama (so in the source)
The assay is described as follows: IRAK1 MSA (Mobility-Shift Assay) at Km ATP. The assay is classed as biochemical. How it is done:
5 μL of the intermediate dilutions were transferred into a black 384-well plate.
IRAK1 was diluted to 7.5 nM in the kinase buffer (50 mM HEPES, pH 7.5, 0.00015% Brij-35, 2 mM DTT). 10 μL of the IRAK1 dilution was transferred to the 384-well plate and co-incubated with the compound for 10-15 min.
The substrate and ATP were diluted to 12.5 μM and 242.5 μM with reaction buffer (50 mM HEPES, pH 7.5, 0.00015% Brij-35, 10 mM MgCl2), respectively. 10 μL of the dilutions was transferred to a 384-well plate and incubated at 28° C. for 1 h. The reaction was terminated by adding 25 μL of 50 mM EDTA to the 384-well plate.
The inhibition rates of IRAK1 by the compounds were calculated by measuring the rate of phosphorylated substrate using a Caliper EZ Reader (PerkinElmer) and the IC50 values were calculated by XL-fit software.

Molecules are shown by their SMILES.

As a reminder, the IC50 is the concentration at which inhibition is half-maximal.

T2 sequence (P51617 whole entry): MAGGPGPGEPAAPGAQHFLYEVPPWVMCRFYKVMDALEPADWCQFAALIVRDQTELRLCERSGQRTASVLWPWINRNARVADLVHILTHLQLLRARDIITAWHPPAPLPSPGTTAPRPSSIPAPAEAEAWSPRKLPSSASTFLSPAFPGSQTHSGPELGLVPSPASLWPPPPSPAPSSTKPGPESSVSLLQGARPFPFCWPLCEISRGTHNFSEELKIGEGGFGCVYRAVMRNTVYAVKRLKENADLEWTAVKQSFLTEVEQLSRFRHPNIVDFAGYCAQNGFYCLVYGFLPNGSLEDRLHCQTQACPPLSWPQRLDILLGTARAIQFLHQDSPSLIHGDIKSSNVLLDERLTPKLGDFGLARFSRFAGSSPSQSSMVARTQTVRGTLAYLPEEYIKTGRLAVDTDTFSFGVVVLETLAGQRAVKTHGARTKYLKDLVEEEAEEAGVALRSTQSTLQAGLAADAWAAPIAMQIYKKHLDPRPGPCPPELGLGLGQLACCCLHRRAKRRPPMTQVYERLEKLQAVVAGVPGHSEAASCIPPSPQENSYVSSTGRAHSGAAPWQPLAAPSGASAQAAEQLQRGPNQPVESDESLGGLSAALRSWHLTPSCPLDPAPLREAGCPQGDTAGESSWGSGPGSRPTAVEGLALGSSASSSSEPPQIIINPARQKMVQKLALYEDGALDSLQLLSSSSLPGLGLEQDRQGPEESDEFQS

As for `COc1cc2nn([C@H]3C[C@H](C(C)(C)O)C3)cc2cc1NC(=O)c1cnn2cccnc12` [MY-004-075], the “Inhibition rate of TNF-α” value in assay [1] was found to be 90.15%. Moreover, in assay [2], the “Inhibition rate of IL-6” value was determined as 96.88%. In assay [3], the IC50 turned out to be 3.6 nM.
For `CC(C)(O)c1cc2nn([C@H]3C[C@H](C(C)(C)O)C3)cc2cc1NC(=O)c1cccc(C(F)(F)F)n1` [MY-004-109], the IC50 was 4320 nM in assay [4] and 5.8 nM in assay [3]. For the same molecule, the “IC50 (IRAK1)/IC50 (IRAK4)” value in assay [4] (selectivity for IRAK4) is 745.

For the origin of these results see patent US20220204473A1, “COMPOUND AS IRAK INHIBITOR” (SHANGHAI MEIYUE BIOTECH DEVELOPMENT CO., LTD., priority 2018, published 2022).
